# Laboratory results: article PMC6658782, “The Novel Arylamidine T-2307 Selectively Disrupts Yeast Mitochondrial Function by Inhibiting Respiratory Chain Complexes” (Antimicrobial Agents and Chemotherapy, 2019)
# How the values were obtained:
# complex III = conditions: cited from earlier work
# [1] = test system: isolated yeast mitochondria; test: Mitochondrial oxygen consumption (MitoXpress probe); format: biochemical, Saccharomyces cerevisiae
# Description: S. cerevisiae from frozen stock (−80°C) was inoculated into yeast extract-peptone-glucose (YPD) medium (1% yeast extract, 2% peptone, and 2% glucose) and grown for 24 h at 30°C. The cultured cells were subcultured into yeast extract-peptone-galactose (YPGal) medium (1% yeast extract, 2% peptone, 2% galactose, and 0.1% glucose) and incubated overnight with continuous shaking at 30°C. When the optical density at 600 nm reached approximately 1.0, the cells were collected by centrifugation (3,000 × g at room temperature for 5 min). Intact mitochondria were isolated as per a previously described protocol ([35]) with minor modifications as follows. Yeast cells were converted to spheroplasts by incubation with Zymolyase-20T (Nacalai Tesque, Inc., Kyoto, Japan) (4 mg of Zymolyase-20T/g [wet weight] of cells) and disrupted using a Dounce homogenizer. The crude mitochondrial fraction was isolated by differential centrifugation ([35]). […]. The mitochondrial protein concentration was determined using the DC protein assay (Bio-Rad Laboratories, Inc., Hercules, CA, USA) following the manufacturer’s instructions. The mitochondrial stock solution was maintained on ice during the oxygen consumption experiment.
# The mitochondrial oxygen consumption was measured using a phosphorescent oxygen-sensitive probe, MitoXpress-Xtra (Agilent Technologies, Santa Clara, CA, USA), as described previously ([16], [36]). Succinate was used as a respiratory substrate in this assay. […] A microplate reader, PHERAstar Plus (BMG Labtech GmbH, Ortenberg, Germany), was used to read. The time-resolved fluorescence protocol was set to read the plate at 1.5-min intervals for 60 min at an excitation wavelength of 337 nm, an emission wavelength of 665 nm, a delay time of 40 μs, and a gate time of 100 μs at 30°C.
# […]. […] For quantitative assessment, OCR was determined from the slope of the initial 7.5 min. OCR is expressed as micromolar of O2 per minute per milligram of protein.
# The drug concentration was expressed as micromoles per milligram of protein. […]
# whole yeast cells = test: Oxygen consumption of whole yeast cells (oxygen electrode); format: cell-based, Saccharomyces cerevisiae; conditions: T-2307 30, 100, 300, 1,000 μM; antimycin A 10 μg/ml; CCCP 4 μM; 23°C; 3 × 10^7 cells/ml
# [2] = molecular target: respiratory chain complex II (Saccharomyces cerevisiae, UniProt P21801+P33421+P37298+Q00711); test: Respiratory chain enzymatic activity, complex II, S. cerevisiae; format: biochemical; conditions: S. cerevisiae; 10 mM malonic acid; read-out: Inhibition (%) of positive control, Complex II
# respiratory chain complex II (Saccharomyces cerevisiae, UniProt P21801+P33421+P37298+Q00711), sequence (P21801 21-266): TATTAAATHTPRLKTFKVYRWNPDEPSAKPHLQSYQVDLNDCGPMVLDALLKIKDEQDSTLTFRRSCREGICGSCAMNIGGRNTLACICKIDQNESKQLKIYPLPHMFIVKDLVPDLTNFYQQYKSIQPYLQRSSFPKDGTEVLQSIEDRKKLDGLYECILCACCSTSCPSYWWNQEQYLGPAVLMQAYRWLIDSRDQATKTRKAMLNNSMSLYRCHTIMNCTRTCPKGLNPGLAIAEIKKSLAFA
# respiratory chain complex II (Saccharomyces cerevisiae, UniProt P21801+P33421+P37298+Q00711), sequence (P33421 51-198): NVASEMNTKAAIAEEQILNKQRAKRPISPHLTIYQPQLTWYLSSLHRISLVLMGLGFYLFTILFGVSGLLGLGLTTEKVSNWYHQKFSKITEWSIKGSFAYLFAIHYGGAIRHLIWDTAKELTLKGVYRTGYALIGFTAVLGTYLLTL
# respiratory chain complex II (Saccharomyces cerevisiae, UniProt P21801+P33421+P37298+Q00711), sequence (P37298 32-181): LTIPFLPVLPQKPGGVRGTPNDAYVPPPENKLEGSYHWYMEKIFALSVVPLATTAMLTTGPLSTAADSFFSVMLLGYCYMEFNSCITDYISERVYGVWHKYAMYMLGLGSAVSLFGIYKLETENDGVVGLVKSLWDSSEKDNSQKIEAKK
# respiratory chain complex II (Saccharomyces cerevisiae, UniProt P21801+P33421+P37298+Q00711), sequence (Q00711 29-640): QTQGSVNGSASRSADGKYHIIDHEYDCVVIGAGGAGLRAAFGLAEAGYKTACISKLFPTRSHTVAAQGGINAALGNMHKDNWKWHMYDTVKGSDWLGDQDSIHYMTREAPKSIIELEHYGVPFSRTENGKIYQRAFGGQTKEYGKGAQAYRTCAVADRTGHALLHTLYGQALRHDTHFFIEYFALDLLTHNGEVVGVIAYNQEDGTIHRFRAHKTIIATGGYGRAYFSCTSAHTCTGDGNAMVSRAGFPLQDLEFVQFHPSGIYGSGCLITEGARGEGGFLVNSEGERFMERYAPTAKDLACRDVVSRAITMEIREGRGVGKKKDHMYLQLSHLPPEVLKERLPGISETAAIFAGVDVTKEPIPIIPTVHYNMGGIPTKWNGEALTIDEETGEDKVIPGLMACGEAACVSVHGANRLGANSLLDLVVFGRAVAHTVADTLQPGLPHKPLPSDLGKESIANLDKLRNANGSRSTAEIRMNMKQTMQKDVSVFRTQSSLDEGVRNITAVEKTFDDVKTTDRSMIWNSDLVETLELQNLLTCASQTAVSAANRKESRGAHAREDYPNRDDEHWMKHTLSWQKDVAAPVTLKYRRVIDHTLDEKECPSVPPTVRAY
# [3] = molecular target: respiratory chain complex II + III (Saccharomyces cerevisiae, UniProt P00163+P07143+P08067); test: Respiratory chain enzymatic activity, complexes II plus III, S. cerevisiae; format: biochemical; conditions: S. cerevisiae; 10 mM malonic acid, 10 μg/ml antimycin A; read-out: Inhibition (%) of positive control, Complex II+III
# [4] = molecular target: respiratory chain complex II (Candida albicans, UniProt Q59QN7+Q5A1E8+Q5AJZ8+Q5ALU6); test: Respiratory chain enzymatic activity, complex II, C. albicans; format: biochemical; conditions: 10 mM malonic acid, read-out: Inhibition (%) of positive control, Complex II
# respiratory chain complex II (Candida albicans, UniProt Q59QN7+Q5A1E8+Q5AJZ8+Q5ALU6), sequence (Q5A1E8 26-641): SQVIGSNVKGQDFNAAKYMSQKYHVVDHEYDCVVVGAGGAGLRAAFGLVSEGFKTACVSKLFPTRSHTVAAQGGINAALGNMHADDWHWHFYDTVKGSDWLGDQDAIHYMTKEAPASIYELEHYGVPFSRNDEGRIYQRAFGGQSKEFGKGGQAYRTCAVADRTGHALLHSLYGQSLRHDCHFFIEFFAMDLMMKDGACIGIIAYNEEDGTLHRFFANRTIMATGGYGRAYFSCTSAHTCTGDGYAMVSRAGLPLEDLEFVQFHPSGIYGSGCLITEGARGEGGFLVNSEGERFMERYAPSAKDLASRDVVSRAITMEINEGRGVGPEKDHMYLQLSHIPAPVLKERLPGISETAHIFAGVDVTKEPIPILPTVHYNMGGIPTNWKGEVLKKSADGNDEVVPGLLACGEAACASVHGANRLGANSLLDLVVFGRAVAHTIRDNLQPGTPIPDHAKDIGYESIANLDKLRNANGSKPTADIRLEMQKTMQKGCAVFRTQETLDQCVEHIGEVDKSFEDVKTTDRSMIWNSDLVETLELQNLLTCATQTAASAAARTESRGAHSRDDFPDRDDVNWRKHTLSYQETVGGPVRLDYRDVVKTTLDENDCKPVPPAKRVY
# respiratory chain complex II (Candida albicans, UniProt Q59QN7+Q5A1E8+Q5AJZ8+Q5ALU6), sequence (Q59QN7 20-263): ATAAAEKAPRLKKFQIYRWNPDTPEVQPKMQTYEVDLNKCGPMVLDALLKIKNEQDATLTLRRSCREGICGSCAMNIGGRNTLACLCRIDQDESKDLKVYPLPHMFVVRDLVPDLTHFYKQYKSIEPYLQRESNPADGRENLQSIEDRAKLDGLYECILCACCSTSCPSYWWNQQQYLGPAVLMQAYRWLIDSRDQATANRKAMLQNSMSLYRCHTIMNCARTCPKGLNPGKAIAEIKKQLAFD
# respiratory chain complex II (Candida albicans, UniProt Q59QN7+Q5A1E8+Q5AJZ8+Q5ALU6), sequence (Q5ALU6 32-176): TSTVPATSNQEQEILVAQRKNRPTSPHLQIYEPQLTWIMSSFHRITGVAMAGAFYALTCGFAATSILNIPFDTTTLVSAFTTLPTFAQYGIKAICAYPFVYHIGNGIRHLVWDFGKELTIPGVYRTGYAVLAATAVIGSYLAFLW
# respiratory chain complex II (Candida albicans, UniProt Q59QN7+Q5A1E8+Q5AJZ8+Q5ALU6), sequence (Q5AJZ8 28-164): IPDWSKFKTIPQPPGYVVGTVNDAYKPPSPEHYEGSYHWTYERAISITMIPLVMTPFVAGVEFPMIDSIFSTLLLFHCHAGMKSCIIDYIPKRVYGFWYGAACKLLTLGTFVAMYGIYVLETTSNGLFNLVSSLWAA
# [5] = molecular target: T1, respiratory chain complex II + III (Candida albicans, UniProt A0A1D8PHA3+A0A1D8PJX3+P0C8L0); test: Respiratory chain enzymatic activity, complexes II plus III, C. albicans; format: biochemical; conditions: C. albicans; 10 mM malonic acid, 10 μg/ml antimycin A; read-out: Inhibition (%) of positive control, Complex II+III
# T1 sequence (P0C8L0 1-387): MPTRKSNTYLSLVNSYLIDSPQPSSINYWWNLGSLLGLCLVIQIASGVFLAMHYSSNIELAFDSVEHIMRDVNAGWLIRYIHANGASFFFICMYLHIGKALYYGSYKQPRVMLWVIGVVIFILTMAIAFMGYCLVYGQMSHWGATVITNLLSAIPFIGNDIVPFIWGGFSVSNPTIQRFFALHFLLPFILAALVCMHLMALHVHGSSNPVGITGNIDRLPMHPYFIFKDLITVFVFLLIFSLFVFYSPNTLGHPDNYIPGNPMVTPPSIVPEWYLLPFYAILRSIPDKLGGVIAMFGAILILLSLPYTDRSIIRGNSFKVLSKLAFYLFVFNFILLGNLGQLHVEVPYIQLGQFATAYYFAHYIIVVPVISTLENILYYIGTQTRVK
# T1 sequence (A0A1D8PHA3 43-288): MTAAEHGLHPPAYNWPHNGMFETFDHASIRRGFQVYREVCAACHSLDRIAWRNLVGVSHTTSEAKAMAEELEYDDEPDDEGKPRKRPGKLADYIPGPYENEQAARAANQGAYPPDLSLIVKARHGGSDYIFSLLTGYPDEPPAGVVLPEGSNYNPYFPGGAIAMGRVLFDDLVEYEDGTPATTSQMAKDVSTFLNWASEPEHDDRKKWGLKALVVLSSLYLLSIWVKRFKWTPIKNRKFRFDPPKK
# T1 sequence (A0A1D8PJX3 30-213): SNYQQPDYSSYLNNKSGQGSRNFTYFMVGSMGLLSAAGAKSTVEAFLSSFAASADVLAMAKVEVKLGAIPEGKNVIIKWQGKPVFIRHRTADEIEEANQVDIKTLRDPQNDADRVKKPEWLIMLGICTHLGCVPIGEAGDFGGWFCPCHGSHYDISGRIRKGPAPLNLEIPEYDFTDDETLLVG
# [6] = molecular target: respiratory chain complex II + III (Bos taurus, UniProt P00125+P00157+P13272); test: MitoCheck complex II/III activity assay, bovine heart mitochondria; format: biochemical; conditions: bovine heart; 1 mM TTFA, 5 μg/ml antimycin A; read-out: Inhibition (%) of positive control, Complex II+III
# Saccharomyces cerevisiae = test: Intracellular ATP levels in yeast (luminescence assay); format: cell-based; conditions: 8 h exposure at 30°C, semisynthetic medium; antimycin A 0.5 μg/ml
# Description: Intracellular ATP levels were measured using a previously described method with the following modifications ([25]). S. cerevisiae was grown overnight in a semisynthetic medium (per liter: 20 g of lactate, 0.5 g of glucose, 3 g of yeast extract, 1 g of KH2PO4, 1 g of NH4Cl, 0.5 g of CaCl2·2H2O, 0.5 g of NaCl, and 0.6 g of MgCl2·6H2O; adjusted to pH 5.5 with NaOH). The cells were harvested during the logarithmic-growth phase by centrifugation (3,000 × g at room temperature for 5 min). They were then washed and resuspended in distilled water. The suspension was diluted in a semisynthetic medium to yield 1 × 10^6 cells/ml. After 5 min of incubation at 30°C, T-2307 and antimycin A were added to the suspension. Further, the cells were incubated for 8 h at 30°C. Subsequently, the cells were collected by centrifugation (4,200 × g at 4°C for 5 min). After washes performed with phosphate-buffered saline (PBS; pH 7.2), the cells were resuspended in PBS and diluted to yield 1 × 10^6 cells/ml. ATP levels were measured using the BacTiter-Glo microbial cell viability assay (Promega, Madison, WI, USA), following the manufacturer’s instructions. Luminescence was measured using a microplate reader POLARstar Optima (BMG Labtech GmbH). To determine the viable cell counts, the cell suspension was diluted with PBS and spread on YPD agar. After a 2-day incubation at 30°C, colonies were counted. The intracellular ATP level is expressed as relative light units (RLU)/CFU.
# NADH dehydrogenase = NADH dehydrogenase activity, C. albicans; format: biochemical, Candida albicans; conditions: C. albicans; 10 μM rotenone
# [7] = molecular target: respiratory chain complex I (Bos taurus, UniProt P03887+P17694+P42026); test: MitoCheck complex I activity assay, bovine heart mitochondria; format: biochemical; conditions: bovine heart; 2 μM rotenone; read-out: Inhibition (%) of positive control, complex I
# Description: The enzymatic activities of bovine heart mitochondrial respiratory chain complexes were determined using MitoCheck complex I, complex II/III, and complex IV activity assay kits (Cayman Chemical, Ann Arbor, MI, USA). Bovine heart mitochondria from these kits were used for experiments. The experiments were performed following the manufacturer’s instructions. In the experiments, 2 μM rotenone, 1 mM KCN, and both 1 mM TTFA and 5 μg/ml antimycin A served as positive controls for the inhibition of complex I, complex IV, and complexes II plus III, respectively.
# In all experiments, the reaction rate of each enzyme was determined by calculating the slope of the linear portion of the curve. Complex I activity in C. albicans was calculated by subtracting the rotenone-insensitive enzymatic activity (with 10 μM rotenone) from the NADH dehydrogenase activity (without rotenone).
# OCRs in isolated mitochondria and intracellular ATP levels were compared between the control and treatment groups using the parametric Dunnett’s multiple-comparison test. P values of <0.05 (comparison of multiple groups) were considered statistically significant. IC50 values were determined from dose-response curves compared with untreated control samples using a four-parameter logistic curve-fitting analysis. Data were analyzed using JMP 13.0 (SAS Institute Japan Ltd., Tokyo, Japan).
molecule,measurement,setting,value
C/C=C/[C@@H]1[C@H]2C[C@@H](C)CC[C@@H]2C(C)=C[C@H]1C(=O)c1c(O)c(-c2ccc(O)cc2)c[nH]c1=O [ilicicolin H],selectivity between yeast and bovine complex III,complex III,> 70 fold
Oligomycin A,effect on mitochondrial oxygen consumption rate (OCR),[1]; ADP-stimulated condition (succinate + ADP),significantly inhibited
same,effect on mitochondrial oxygen consumption rate (OCR),"[1]; basal condition (succinate, absence of ADP)",did not decrease the OCR
"N#CC(C#N)=NNc1cccc(Cl)c1 [CCCP, carbonyl cyanide m-chlorophenylhydrazone]",effect on oxygen consumption in whole yeast cells,whole yeast cells,stimulated oxygen consumption
O=C(O)CC(=O)O [Malonic acid],inhibition at 10000 µM,[2],100%
same,inhibition at 10000 µM,[3],97%
same,inhibition at 10000 µM,[4],100%
same,inhibition at 10000 µM,[5],98%
"O=C(CC(=O)C(F)(F)F)c1cccs1 [TTFA, 2-thenoyltrifluoroacetone, reference compound]",inhibition at 1000 µM,[6],86%
CCCCCC[C@H]1C(=O)O[C@H](C)[C@H](NC(=O)c2cccc(NC=O)c2O)C(=O)O[C@@H](C)[C@@H]1OC(=O)CC(C)C [Antimycin A],effect on oxygen consumption in whole yeast cells,whole yeast cells,completely and immediately inhibited respiration
same,inhibition at 10 µg/mL,[3],97%
same,inhibition at 10 µg/mL,[5],98%
same,inhibition at 5 µg/mL,[6],92%
same,effect on intracellular ATP level,Saccharomyces cerevisiae,significantly decreased
"C=C(C)[C@H]1Cc2c(ccc3c2O[C@@H]2COc4cc(OC)c(OC)cc4[C@@H]2C3=O)O1 [Rotenone, rotenone, reference compound]","Inhibition (%) of positive control, NADH dehydrogenase (including Complex I)",NADH dehydrogenase,59%
same,inhibition at 2 µM,[7],68%
